We go through four molecules from patent publication US20130012466A1 (priority 2006, published 2013).

Data set [1] concerns mouse mammary normal epithelial control cell line. Nature of the data set: Cytotoxicity assay, normal control cell line.
The next data set concerns A549. Nature of the data set: Cytotoxicity assay (cell titer-glo and calcein AM), A549. To be noted: A549, % error in parentheses.
Another data set concerns Du145. Briefly: Cytotoxicity assay (cell titer-glo and calcein AM), Du145. To be noted: Du145, % error in parentheses.
In a further data set the test system is Hep3B. Nature of the data set: Cytotoxicity assay (cell titer-glo and calcein AM), Hep3B. To be noted: Hep 3B, % error in parentheses.
The next data set relates to SF-268. Briefly: Cytotoxicity assay (cell titer-glo and calcein AM), SF-268. To be noted: SF-268, % error in parentheses.
A further data set relates to SK-OV-3. Nature of the data set: Cytotoxicity assay (cell titer-glo and calcein AM), SK-OV-3. To be noted: SK-OV-3, % error in parentheses.
The test system of the next data set is ADR-RES. Nature of the data set: Cytotoxicity assay (cell titer-glo and calcein AM), ADR-RES. To be noted: NCI/ADR RES, % error in parentheses.
The subject of the next data set is NCI-H460. Nature of the data set: Cytotoxicity assay (cell titer-glo and calcein AM), NCI-H460. To be noted: NCI-H460, % error in parentheses.
The subject of a further data set is MCF7. Nature of the data set: Cytotoxicity assay (cell titer-glo and calcein AM), MCF7.
Where [2] appears, read: read-out: Cytotoxicity IC50, NmuMG, CTG, CTG (cell titer-glo) readout, % error in parentheses.
The mark [3] stands for this setting: read-out: Cytotoxicity IC50, NmuMG, calcein, calcein AM readout, % error in parentheses.
[4] abbreviates: read-out: Cytotoxicity IC50, A549, CTG, CTG (cell titer-glo) readout.
Where [5] appears, read: read-out: Cytotoxicity IC50, A549, calcein, calcein AM readout.
The mark [6] stands for this setting: read-out: Cytotoxicity IC50, Du145, CTG, CTG (cell titer-glo) readout.
Where [7] appears, read: read-out: Cytotoxicity IC50, Du145, calcein, calcein AM readout.
The mark [8] stands for this setting: read-out: Cytotoxicity IC50, Hep 3B, CTG, CTG (cell titer-glo) readout.
Setting [9] is: read-out: Cytotoxicity IC50, Hep 3B, calcein, calcein AM readout.
The mark [10] stands for this setting: read-out: Cytotoxicity IC50, SF-268, CTG, CTG (cell titer-glo) readout.
Setting [11] is: read-out: Cytotoxicity IC50, SF-268, calcein, calcein AM readout.
[12] abbreviates: read-out: Cytotoxicity IC50, SK-OV-3, CTG, CTG (cell titer-glo) readout.
Setting [13] is: read-out: Cytotoxicity IC50, SK-OV-3, calcein, calcein AM readout.
Setting [14] is: read-out: Cytotoxicity IC50, NCI/ADR RES, CTG, CTG (cell titer-glo) readout.
[15] abbreviates: read-out: Cytotoxicity IC50, NCI/ADR RES, calcein, calcein AM readout.
The mark [16] stands for this setting: read-out: Cytotoxicity IC50, NCI-H460, CTG, CTG (cell titer-glo) readout.
[17] abbreviates: read-out: Cytotoxicity IC50, NCI-H460, calcein, calcein AM readout.
Where [18] appears, read: read-out: Cytotoxicity IC50, MCF7, CTG, CTG (cell titer-glo) readout, % error in parentheses.
Setting [19] is: read-out: Cytotoxicity IC50, MCF7, calcein, calcein AM readout, % error in parentheses.

Read-outs that look alike come from different tables or passages of the source.

For the molecule `CCCCCCCCCC(=O)NC[C@H]1O[C@@H](N(CC(=O)N[C@H]2CCc3cc(OC)c(OC)c(OC)c3-c3ccc(OC)c(=O)cc32)OC)[C@H](O)[C@@H](O)[C@@H]1O` [Col59, 6-deoxy-6-N-decanoyl-D-glucosaminoside], the IC50 in [1] (setting [2]) is above 10 µM; in data set [1] (setting [3]) it was 8.43 µM; in the data set on A549 (setting [4]) it was 8.14 µM; in the data set with A549 (setting [5]) it was above 10 µM; in the data set on Du145 (setting [6]), 5.28 µM; with Du145 (setting [7]), 7.09 µM. Further, the IC50 was 5.7 µM with Hep3B (setting [8]); 7.36 µM in the data set with Hep3B (setting [9]); 5.53 µM with SF-268 (setting [10]); 9.44 µM in the data set on SF-268 (setting [11]); 5.08 µM in the data set with SK-OV-3 (setting [12]); 7.11 µM with SK-OV-3 (setting [13]). For the same molecule, the IC50 was 5.16 µM in the data set on ADR-RES (setting [14]); 7.97 µM with ADR-RES (setting [15]); 4.95 µM in the data set on NCI-H460 (setting [16]); 5.21 µM with NCI-H460 (setting [17]); 5.51 µM with MCF7 (setting [18]); 6.19 µM in the data set on MCF7 (setting [19]).
Consider `CCCCCCCCCC(=O)N[C@@H]1[C@@H](O)[C@H](N(CC(=O)N[C@H]2CCc3cc(OC)c(OC)c(OC)c3-c3ccc(OC)c(=O)cc32)OC)O[C@H](CO)[C@H]1O` [Col60, 3-deoxy-3-N-decanoyl-D-glucosaminoside], for which the IC50 is 8.37 µM in [1] (setting [2]); 6.04 µM in data set [1] (setting [3]); above 10 µM with A549 (setting [4]); above 10 µM with A549 (setting [5]); 4.79 µM in the data set on Du145 (setting [6]); 6.2 µM with Du145 (setting [7]). The IC50 is 4.97 µM with Hep3B (setting [8]); above 10 µM with Hep3B (setting [9]); 5.03 µM with SF-268 (setting [10]); 4.13 µM in the data set with SF-268 (setting [11]); 4.38 µM in the data set on SK-OV-3 (setting [12]); 4.15 µM in the data set with SK-OV-3 (setting [13]). The IC50 in the data set on ADR-RES (setting [14]) was 4.98 µM; with ADR-RES (setting [15]) it was 4.65 µM; in the data set on NCI-H460 (setting [16]), 3.98 µM; with NCI-H460 (setting [17]) it was 5.88 µM; in the data set with MCF7 (setting [18]), 3.36 µM; with MCF7 (setting [19]), 3.04 µM.
Consider `COc1cc2c(c(OC)c1OC)-c1ccc(OC)c(=O)cc1[C@@H](NC(=O)CN(OC)[C@@H]1O[C@H](CSC(C)=O)[C@H](O)[C@H](O)[C@H]1O)CC2` [Col68, 6-deoxy-6-thio-acyl-D-galactoside], for which the IC50 was 9.83 µM in data set [1] (setting [2]); 9.44 µM in [1] (setting [3]); 4.77 µM with A549 (setting [4]); 7.67 µM with A549 (setting [5]); 4.19 µM in the data set on Du145 (setting [6]); 1.73 µM in the data set on Du145 (setting [7]). For the same molecule, the IC50 was 5.22 µM in the data set on Hep3B (setting [8]); 7.92 µM in the data set on Hep3B (setting [9]); 3.85 µM with SF-268 (setting [10]); 3.27 µM with SF-268 (setting [11]); 4.5 µM in the data set on SK-OV-3 (setting [12]); 2.43 µM in the data set with SK-OV-3 (setting [13]). The IC50 in the data set with ADR-RES (setting [14]) is 4.88 µM; in the data set on ADR-RES (setting [15]), 2.04 µM; with NCI-H460 (setting [16]) it was 4.41 µM; in the data set with NCI-H460 (setting [17]), 3.12 µM; in the data set on MCF7 (setting [18]) it was 2.42 µM; with MCF7 (setting [19]), 2.54 µM.
Consider mycaroside [Col49], for which the IC50 in [1] (setting [2]) is above 10 µM; in data set [1] (setting [3]) it was 8.84 µM; in the data set on A549 (setting [4]) it was above 10 µM; in the data set on A549 (setting [5]), above 10 µM; with Du145 (setting [6]), 5.2 µM; in the data set with Du145 (setting [7]), 8.56 µM. In addition, the IC50 in the data set with Hep3B (setting [8]) is 9.76 µM; in the data set on Hep3B (setting [9]) it was above 10 µM; in the data set with SF-268 (setting [10]) it was 9.94 µM; in the data set with SF-268 (setting [11]), 7.86 µM; in the data set on SK-OV-3 (setting [12]), above 10 µM; with SK-OV-3 (setting [13]), above 10 µM. Also, the IC50 in the data set on ADR-RES (setting [14]) is 5.38 µM; in the data set on ADR-RES (setting [15]), above 10 µM; with NCI-H460 (setting [16]), at least 10 µM; with NCI-H460 (setting [17]) it was 9.31 µM; with MCF7 (setting [18]) it was 4.38 µM; in the data set on MCF7 (setting [19]) it was 5.21 µM.
